Results published in US10828317B2, “Method of treating bacterial infections” (priority 2016, dated 2020).

Tests used:
A. baumannii EN007 = assay: MIC, WT (EN007 = EN0007); assay type: cell-based, Acinetobacter baumannii; settings: combination FdUrd+trimethoprim+uridine
A. baumannii EN017 = assay type: cell-based, Acinetobacter baumannii; settings: combination FdUrd+trimethoprim+uridine, Table 8
K. pneumoniae EN0143 = assay: MIC, ESBL (SHV-12); assay type: cell-based; settings: combination FdUrd+trimethoprim+uridine, Table 19
K. pneumoniae EN010 = assay: MIC, WT; assay type: cell-based, Klebsiella pneumoniae; settings: combination FdUrd+trimethoprim+uridine, Table 8
K. pneumoniae EN0436 = assay: MIC, colistinR; assay type: cell-based; settings: combination FdUrd+trimethoprim+uridine, Table 19
E. coli EN0134 = assay: MIC, AmpC (CMY-4); assay type: cell-based; settings: combination FdUrd+trimethoprim+uridine, Table 19
K. pneumoniae EN011 = assay type: cell-based, Klebsiella pneumoniae; settings: combination FdUrd+trimethoprim+uridine, Table 8
S. aureus strain no 13 = assay: MIC vs S. aureus LMG 15975, MRSA; settings: Uridine 0 μg/ml
E. coli EN0138 = assay: MIC, ESBL (CTX-M-9); assay type: cell-based; settings: combination FdUrd+trimethoprim+uridine, Table 19
S. aureus V308 = assay: MIC; assay type: cell-based
S. aureus no. 11 = assay: MIC; assay type: cell-based
P. aeruginosa EN005 = settings: combination FdUrd+trimethoprim+uridine, Table 8
E. coli EN013 = assay type: cell-based, Escherichia coli; settings: combination FdUrd+trimethoprim+uridine, Table 8
K. pneumoniae EN0401 = assay: MIC, Carbapenemase + ESBL; assay type: cell-based; settings: combination FdUrd+trimethoprim+uridine, Table 19
S. aureus no. 12 = assay: MIC vs S. aureus LMG 10147, MSSA; assay type: cell-based, Staphylococcus aureus; settings: Uridine 0 μg/ml
[1] = test system: Helicobacter pylori APV00918; assay: MIC; assay type: cell-based; settings: combination FdUrd+trimethoprim+uridine, Table 22A
Source text: (§1) Inhibition of Heliobacter is important in view of increasing resistance and its association to gastric cancer.

[2] = test system: Helicobacter pylori ATTC43504; assay: MIC; assay type: cell-based; settings: combination FdUrd+trimethoprim+uridine, Table 22A
Source text: as §1

K. pneumoniae EN0437 = assay: MIC, colistinR; assay type: cell-based; settings: combination FdUrd+trimethoprim+uridine, Table 19
S. aureus V86 = assay: MIC; assay type: cell-based; settings: Uridine 0 μg/ml
E. coli EN0139 = assay: MIC, ESBL (CTX-M-15); assay type: cell-based; settings: combination FdUrd+trimethoprim+uridine, Table 19
P. aeruginosa EN015 = assay type: cell-based, Pseudomonas aeruginosa; settings: combination FdUrd+trimethoprim+uridine, Table 8
S. flexneri APV00906 = assay: microbe, parasite or virus in culture; assay type: cell-based; settings: combination FdUrd+trimethoprim+uridine, Table 22A
Source text: as §1

E. coli strain no 2 = assay: MIC vs E. coli LMG 15862, penicillin resistant; settings: Table 26B
K. pneumoniae EN0262 = assay: MIC, ESBL (+), KPC+; assay type: cell-based; settings: combination FdUrd+trimethoprim+uridine, Table 19 and 21
K. pneumoniae EN0233 = assay: MIC; assay type: cell-based; settings: combination FdUrd+trimethoprim+uridine, Table 19
E. coli EN0135 = assay: MIC, ESBL (SHV-2a); assay type: cell-based; settings: combination FdUrd+trimethoprim+uridine, Table 19
[3] = Iclaprim 0.008 μg/ml, Uridine 0 μg/ml
[4] = Iclaprim 0.008 μg/ml, Uridine 100 μg/ml
[5] = Iclaprim 0.03 μg/ml, Uridine 0 μg/ml
[6] = Iclaprim […], Uridine 100 μg/ml

**Q.** Which MIC (A. baumannii EN007; Table 8) does the source give for `O=c1[nH]c(=O)n([C@H]2C[C@H](O)[C@@H](CO)O2)cc1F` [FdUrd, Fluorodeoxyuridine] here?
**A.** Its MIC is >4 µg/mL.

**Q.** And the MIC (A. baumannii EN007; Table 19)?
**A.** The MIC was >4 µg/mL.

**Q.** What about the MIC (A. baumannii EN017) of the same compound?
**A.** The MIC was 0.5 µg/mL.

**Q.** And the MIC (K. pneumoniae EN0143)?
**A.** Its MIC is >4 µg/mL.

**Q.** What about the MIC (K. pneumoniae EN010) of the same compound?
**A.** The MIC was 0.5 µg/mL.

**Q.** And the MIC (K. pneumoniae EN0436)?
**A.** The MIC was 0.25 µg/mL.

**Q.** And the MIC (E. coli EN0134)?
**A.** Its MIC is >4 µg/mL.

**Q.** And the MIC (K. pneumoniae EN011)?
**A.** Its MIC is 0.064 µg/mL.

**Q.** What about the “MIC FdUrd” value (S. aureus strain no 13; Table 26A (isolate not given), Iclaprim 0.015) of the same compound?
**A.** Its value is >0.5 µg/mL.

**Q.** And the “MIC FdUrd” value (S. aureus strain no 13; Table 26A (isolate not given), Iclaprim 0.03)?
**A.** The value was >0.5 µg/mL.

**Q.** What about the “MIC FdUrd” value (S. aureus strain no 13; Table 26A (isolate not given), Iclaprim 0.08) of the same compound?
**A.** Its value is >0.5 µg/mL.

**Q.** And the “MIC FdUrd” value (S. aureus strain no 13; Table 30C, Iclaprim 0.008 μg/ml)?
**A.** Its value is >4 µg/mL.

**Q.** What about the “MIC FdUrd” value (S. aureus strain no 13; Table 30C, Iclaprim 0.03 μg/ml) of the same compound?
**A.** The value was >4 µg/mL.

**Q.** And the “MIC FdUrd” value (S. aureus strain no 13; Table 30C, Iclaprim […])?
**A.** The value was >4 µg/mL.

**Q.** What about the MIC (E. coli EN0138) of the same compound?
**A.** Its MIC is 0.25 µg/mL.

**Q.** And the “MIC FdUrd” value (S. aureus V308; Iclaprim 0 μg/ml, Uridine 0 μg/ml)?
**A.** Its value is >16 µg/mL.

**Q.** What about the “MIC FdUrd” value (S. aureus V308; Iclaprim 0 μg/ml, Uridine 100 μg/ml) of the same compound?
**A.** Its value is >16 µg/mL.

**Q.** What about the “MIC FdUrd” value (S. aureus V308; [3]) of the same compound?
**A.** The value was >4 µg/mL.

**Q.** What about the “MIC FdUrd” value (S. aureus V308; [4]) of the same compound?
**A.** The value was >4 µg/mL.

**Q.** What about the “MIC FdUrd” value (S. aureus V308; [5]) of the same compound?
**A.** The value was >4 µg/mL.

**Q.** What about the “MIC FdUrd” value (S. aureus V308; Iclaprim 0.06 μg/ml, Uridine 0 μg/ml) of the same compound?
**A.** The value was >4 µg/mL.

**Q.** What about the “MIC FdUrd” value (S. aureus V308; Iclaprim […], Uridine 0 μg/ml) of the same compound?
**A.** Its value is >4 µg/mL.

**Q.** And the “MIC FdUrd” value (S. aureus V308; [6])?
**A.** Its value is >4 µg/mL.

**Q.** What about the “MIC FdUrd” value (S. aureus no. 11; [3]) of the same compound?
**A.** Its value is >4 µg/mL.

**Q.** What about the “MIC FdUrd” value (S. aureus no. 11; [4]) of the same compound?
**A.** Its value is >4 µg/mL.

**Q.** What about the “MIC FdUrd” value (S. aureus no. 11; [5]) of the same compound?
**A.** Its value is >4 µg/mL.

**Q.** What about the “MIC FdUrd” value (S. aureus no. 11; Iclaprim 0.03 μg/ml, Uridine 100 μg/ml) of the same compound?
**A.** The value was >4 µg/mL.

**Q.** What about the “MIC FdUrd” value (S. aureus no. 11; Iclaprim […], Uridine 0 μg/ml) of the same compound?
**A.** Its value is >4 µg/mL.

**Q.** What about the “MIC FdUrd” value (S. aureus no. 11; [6]) of the same compound?
**A.** The value was >4 µg/mL.

**Q.** And the MIC (P. aeruginosa EN005)?
**A.** Its MIC is 0.25 µg/mL.

**Q.** And the MIC (E. coli EN013)?
**A.** Its MIC is 0.016 µg/mL.

**Q.** And the MIC (K. pneumoniae EN0401)?
**A.** The MIC was >4 µg/mL.

**Q.** What about the “MIC FdUrd” value (S. aureus no. 12; Iclaprim 0.008 μg/ml) of the same compound?
**A.** The value was >4 µg/mL.

**Q.** What about the “MIC FdUrd” value (S. aureus no. 12; Iclaprim 0.03 μg/ml) of the same compound?
**A.** Its value is >4 µg/mL.

**Q.** And the “MIC FdUrd” value (S. aureus no. 12; Iclaprim […])?
**A.** The value was >4 µg/mL.

**Q.** What about the MIC [1] of the same compound?
**A.** Its MIC is 0.06 µg/mL.

**Q.** And the MIC [2]?
**A.** Its MIC is 0.06 µg/mL.

**Q.** And the MIC (K. pneumoniae EN0437)?
**A.** Its MIC is >4 µg/mL.

**Q.** And the “MIC FdUrd” value (S. aureus V86; Iclaprim 0.008 μg/ml)?
**A.** The value was >4 µg/mL.

**Q.** What about the “MIC FdUrd” value (S. aureus V86; Iclaprim 0.03 μg/ml) of the same compound?
**A.** Its value is >4 µg/mL.

**Q.** And the “MIC FdUrd” value (S. aureus V86; Iclaprim 0.06 μg/ml)?
**A.** The value was >4 µg/mL.

**Q.** What about the “MIC FdUrd” value (S. aureus V86; Iclaprim […]) of the same compound?
**A.** Its value is >4 µg/mL.

**Q.** And the MIC (E. coli EN0139)?
**A.** The MIC was 0.5 µg/mL.

**Q.** What about the MIC (P. aeruginosa EN015) of the same compound?
**A.** Its MIC is 1 µg/mL.

**Q.** And the MIC (S. flexneri APV00906)?
**A.** Its MIC is >4 µg/mL.

**Q.** And the “MIC FdUrd” value (E. coli strain no 2; Iclaprim 0, Uridine 0 μg/ml)?
**A.** The value was >16 µg/mL.

**Q.** And the “MIC FdUrd” value (E. coli strain no 2; Iclaprim 0, Uridine 100 μg/ml)?
**A.** The value was >16 µg/mL.

**Q.** What about the “MIC FdUrd” value (E. coli strain no 2; Iclaprim 0, Uridine 300 μg/ml) of the same compound?
**A.** The value was >16 µg/mL.

**Q.** And the “MIC FdUrd” value (E. coli strain no 2; Iclaprim 0, Uridine 500 μg/ml)?
**A.** The value was >16 µg/mL.

**Q.** And the “MIC FdUrd” value (E. coli strain no 2; Iclaprim 0.1, Uridine 0 μg/ml)?
**A.** Its value is >8 µg/mL.

**Q.** And the “MIC FdUrd” value (E. coli strain no 2; Iclaprim 0.1, Uridine 100 μg/ml)?
**A.** Its value is >8 µg/mL.

**Q.** And the “MIC FdUrd” value (E. coli strain no 2; Iclaprim 0.2, Uridine 0 μg/ml)?
**A.** Its value is >8 µg/mL.

**Q.** And the MIC (K. pneumoniae EN0262)?
**A.** The MIC was 2 µg/mL.

**Q.** And the MIC (K. pneumoniae EN0233)?
**A.** The MIC was 0.5 µg/mL.

**Q.** And the MIC (E. coli EN0135)?
**A.** Its MIC is 0.25 µg/mL.
